# Laboratory results taken from patent EP0714662A1, “ANTIALLERGIC AGENT” (MEIJI MILK PRODUCTS COMPANY LIMITED, priority 1993, dated 1995).
# Ends that are not written are not given here.
# Key:
# [1] = test system: serum IgE from 15 patients suffering from mite rhinallergosis; test: Enzyme antibody assay: binding of solid phase Der p II overlapping peptides to patients' serum IgE; parameters: species or system human; settings: serum from each of 15 patients
# Procedure: The complete primary structure of the amino acid sequence of a Der p II protein was determined after cDNA was isolated therefrom by Chua et al. (Int. Arch. Allergy Appl. Immunol. 91: 118-123, 1990). Based on the amino acid sequence, peptides were synthesized on a solid phase using a multipin system (manufactured by Chiron) and coupling reagents, Fmoc-amino acid and DCC (dicyclohexyl carbodiimide) (Geysen, H.M. et al., Proc. Natl. Acad. Sci. USA. 81:3998-4002, 1984). Sixty-one kinds of peptides were synthesized, the first peptide comprising the first through ninth amino acids of the N-terminal of Der p II, the second peptide comprising the third through eleventh amino acids of the N-terminal, and the third through 61st peptides being prepared in an analogous manner.
# The RAST (radio-allergosorbent test, Pharmacia) values as determined using antigens from two mite species, Dermatophagoides pteronyssinus (Der p) and Dermatophagoides farina (D f), were class 4. Each of the above-mentioned 61 synthesized peptides and 100 µl of each patient's serum were placed in a 96-well plate and reacted overnight at room temperature. Synthesized peptides in a solid phase were washed three times to remove the patient's serum using a washing solution of 0.05% Tween 20/0.15 M NaCl/Tris-HCl (pH 7.5). 100 µl of galactosidase-labelled anti-human IgE antibodies (Pharmacia) were diluted to 40-fold using a 1:9 diluted Block-ace (product of Dainippon Seiyaku K.K.). The diluted solution was added to a 96-well plate, each synthesized solid phase peptide was also added, and reaction, was allowed to proceed overnight at room temperature. The synthesized solid phase peptide was washed with the same washing solution five times. Thereafter, to a 96-well black plate (manufactured by Dainippon Seiyaku K.K.), were added 200 µl of a solution of 0.1 mM 4-methylumbelliferyl-β-D-galactopyranoside in 0.1% bovine serum albumin/0.1 M NaCl/1 mM MgCl₂/0.1% sodium azide/10 mM phosphate buffer (pH 7.0). Subsequently, the synthesized solid phase peptide was added and reacted for 2 hours at 37°C. After completion of reaction, 100 µl of a reaction terminating solution (0.1 M glycin/NaOH, pH 10.3) were added to each well, and absorbance was measured using a fluorospectrophotometer for 96-well plates (Manufactured by Flow). This reaction was studied for each of 15 patients.
# [2] = test system: pooled patients' serum IgE; test: Binding inhibition assay: pooled patients' serum IgE to mite body extract (MBE); parameters: species or system human; settings: peptide concentration of about 5 µg/ml - 5 mg/ml; pooled serum of 10 patients
# Procedure: A crude mite body extract (MBE) was prepared from a mite, Dermatophagoides pteronyssinus (Der p), by homogenizing Der p mite bodies in 0.15 M NaCl/phosphate buffer (pH 7.3, PBS) using a Teflon homogenizer and centrifugally separating to collect the supernatant. A pooled serum IgE from patients was prepared by blending sera from 10 patients suffering from rhinallergosis caused by mites (RAST values with respect to Dermat ophagoides pteronyssinus: 3 or more). The peptide (Der p II 55-63) was synthesized by a Fmoc method using a peptide synthesizer pssm 8 manufactured by Shimadzu Corporation. The results of the synthesis were confirmed by an amino acid analysis and by an analysis of the primary structure. The MBE was added to each well of a 96-well black plate (Dainippon Seiyaku k.K.) so that the amount of protein contained was 1 µg/well (100 µl). The plate was allowed to stand overnight at 4°C. […] After completion of reaction, 100 µl of a reaction terminating liquid (0.1 M glycin/NaOH, pH 10.3) were added to each well, and absorbance was measured using a fluorospectrophotometer for 96-well plates (Manufactured by Flow). The absorbance in a control which was prepared by adding a PBS solution in place of the peptide was taken as 100%.
# [3] = test system: basophils artificially sensitized in a passive manner with serum IgEs from patients suffering from rhinallergosis caused by mites; test: Passive histamine release (inhibition) test with passively sensitized basophils; format: cell-based, human
# Procedure: To 20 ml of heparinized venous blood, 5 ml of a 4.5% dextran solution were added and the mixture was allowed to stand for 30 to 60 minutes at room temperature. The upper leukocyte layer was extracted and subjected to a repetitive centrifugal operation. The leukocytes were then washed with PBS. To the leuokocytes in a precipitated fraction, 20 ml of a lactate buffer (pH 3.9, 4°C) were added and thoroughly mixed. After cooling the mixture on ice for 2 to 5 minutes, the pH was returned to neutral by adding PBS (25 ml). By this operation, IgEs on basophils were released. The leukocytes were washed well with PBS and suspended in 0.5% human albumin/PBS. 100 µl of cell suspension (approximately 2 x 10⁵ cells/well) were added to a V-bottom 96-well plate. Fifty µl of a pooled serum of patients suffering from rhinallergosis caused by mites were further added, and reaction was allowed to proceed for 1 hour at 37°C. This procedure caused serum IgEs from the patients suffering from rhinallergosis caused by mites to be bound to IgE receptors. Thus, basophils artificially sensitized in a passive manner with serum IgEs from patients suffering from rhinallergosis caused by mites can be obtained (Pruzansky J.J. et al., J. Immunol., 131; 1949-1953, 1983). The plate was centrifuged to remove 100 µl of a supernatant. 100 µl of a 0.5% human albumin/PBS were added to the residue and centrifuged again. The centrifugal operation was repeated twice, and the cells were then washed. 100 µl of a Der p II peptide (55-63) having a predetermined concentration of PBS were combined with 50 µl of an MBE (10 µg/50 µl) or PBS, and allowed to react for 30 minutes at 37°C. The plate was then centrifuged to collect 100 µl of a supernatant. The amount of histamine was determined using a histamine assay kit manufactured by Eiken Kagaku K.K.
# Essentially, a histamine release test is performed to determine the amount of histamine released when an antigen solution (an allergen solution) is added to a sample of whole blood (fresh blood) from an allergic patient. […]
sequence,measurement,setting,value
KASIDGLEV [synthesized peptide No. 28],binding reactions with IgE antibodies,[1],exhibited binding reactions with IgE antibodies
same,inhibition of binding of pooled patients' serum IgE to MBE,[2],20%
same,suppression of histamine release caused by MBE,[3]; low peptide concentrations,could not suppress histamine release
same,suppression of histamine release caused by MBE,"[3]; peptide concentration 7.55 mg/ml, MBE 10 µg/50 µl",about 90%
same,histamine release,[3]; substance added alone to passively sensitized basophils,histamine was scarcely released
